In the first assay the target is Sigma non-opioid intracellular receptor 1 (Rattus norvegicus, UniProt Q9R0C9). Description: Displacement of [3H](+)-pentazocine from sigma-1 receptor in rat liver homogenate. Type of assay: tissue-based. (In general: Loss of bound radioactivity is the signal in a displacement assay; it reports binding, not function.)
Sequence of Sigma non-opioid intracellular receptor 1 (Rattus norvegicus, UniProt Q9R0C9) (Q9R0C9 whole entry): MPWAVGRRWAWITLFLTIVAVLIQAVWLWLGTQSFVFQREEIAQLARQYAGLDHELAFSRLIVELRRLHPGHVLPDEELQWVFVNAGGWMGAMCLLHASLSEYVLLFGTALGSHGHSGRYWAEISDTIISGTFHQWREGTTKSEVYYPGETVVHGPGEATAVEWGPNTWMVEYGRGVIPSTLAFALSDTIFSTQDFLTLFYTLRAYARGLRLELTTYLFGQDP
The IC50 is the midpoint of a concentration-inhibition curve. A lower IC50 goes with greater potency in that assay. As to `c1ccc(CCNC23OC4C5C6CC(C7C6C4C72)C53)cc1` (stereo not drawn), the IC50 is 1540 nM. Same read-out and setting: under `c1ccc(CNC23OC4C5C6CC(C7C6C4C72)C53)cc1` (stereo not drawn) stands 1780 nM.

The target of a further assay is Sigma non-opioid intracellular receptor 1 (Cavia porcellus, UniProt Q60492). Description: Displacement of [3H](+)-pentazocine from sigma-1 receptor in guinea pig brain.
Sequence of Sigma non-opioid intracellular receptor 1 (Cavia porcellus, UniProt Q60492) (Q60492 whole entry): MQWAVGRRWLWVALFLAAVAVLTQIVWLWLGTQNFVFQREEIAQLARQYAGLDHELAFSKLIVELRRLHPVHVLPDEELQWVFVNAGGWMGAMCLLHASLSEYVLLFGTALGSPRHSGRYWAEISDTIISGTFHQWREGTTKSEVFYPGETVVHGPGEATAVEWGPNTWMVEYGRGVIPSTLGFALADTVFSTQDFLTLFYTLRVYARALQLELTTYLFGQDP
One may read the Ki as a dissociation constant, usually derived from enzyme kinetics or from competition with a known ligand. Lower therefore signals higher affinity. With `OC12C3C4CC5C6C4C1C6C(C53)N2Cc1ccccc1` (stereo not drawn), the Ki is 102 nM.

Molecule `OC12C3C4CC5C6C4C1C6C(C53)N2CCCc1ccccc1` (stereo not drawn) gave a Ki of 20.9 nM. Still for that read-out and setting: the figure for `OC12C3C4CC5C6C4C1C6C(C53)N2CCCCc1ccccc1` (stereo not drawn) is 8.91 nM. Same read-out and setting: under `COc1ccc(CN2C3C4C5CC6C7C5C3C7C2(O)C64)cc1` (stereo not drawn) stands 102 nM; under `OC12C3C4CC5C6C4C1C6C(C53)N2CCc1ccccc1` (stereo not drawn), 20 nM; under `OC12C3C4CC5C6C4C1C6C(C53)N2CCc1ccc(Cl)c(Cl)c1` (stereo not drawn), 10 nM. For the molecule `OC12C3C4CC5C6C4C1C6C(C53)N2CCc1cccc(Cl)c1` (stereo not drawn), the Ki is 20.9 nM. Same read-out and setting: under `OC12C3C4CC5C6C4C1C6C(C53)N2CCc1ccc(Br)cc1` (stereo not drawn) stands 10 nM. On the same count and under the same terms, under `OC12C3C4CC5C6C4C1C6C(C53)N2Cc1cccc(Cl)c1` (stereo not drawn) stands 186 nM; under `Cc1cccc(CN2C3C4C5CC6C7C5C3C7C2(O)C64)c1` (stereo not drawn), 97.7 nM; under `OC12C3C4CC5C6C4C1C6C(C53)N2Cc1cccc(C(F)(F)F)c1` (stereo not drawn), 269 nM.

On to `O=[N+]([O-])c1cccc(CN2C3C4C5CC6C7C5C3C7C2(O)C64)c1` (stereo not drawn), for which the Ki is 1100 nM. Still for that read-out and setting: the figure for `OC12C3C4CC5C6C4C1C6C(C53)N2Cc1ccccc1F` (stereo not drawn) is 182 nM; for `OC12C3C4CC5C6C4C1C6C(C53)N2Cc1ccc(F)c(F)c1` (stereo not drawn) it is 200 nM; for `OC12C3C4CC5C6C4C1C6C(C53)N2Cc1ccc(F)cc1` (stereo not drawn) it is 107 nM.

With `OC12C3C4CC5C6C4C1C6C(C53)N2Cc1ccc(I)cc1` (stereo not drawn), the affinity corresponds to a Ki of 81.3 nM. With `OC12C3C4CC5C6C4C1C6C(C53)N2Cc1cccc(I)c1` (stereo not drawn), the Ki was 170 nM. On the same count and under the same terms, the figure for `OC12C3C4CC5C6C4C1C6C(C53)N2Cc1ccc(Br)cc1` (stereo not drawn) is 85.1 nM; for `OC12C3C4CC5C6C4C1C6C(C53)N2Cc1cccc(Br)c1` (stereo not drawn) it is 209 nM.

For the molecule `OC12C3C4CC5C6C4C1C6C(C53)N2CCc1cccc(F)c1` (stereo not drawn), affinity was put at a Ki of 10 nM. Same read-out and setting: under `OC12C3C4CC5C6C4C1C6C(C53)N2Cc1cccc(F)c1` (stereo not drawn) stands 151 nM.

These data come from ChEMBL document CHEMBL2331127, “3D-QSAR and docking studies of pentacycloundecylamines at the sigma-1 (σ1) receptor” (Bioorg Med Chem Lett, 2013).
